We go through 2 compounds from US11065209B2, “Use of cannabidiol in the treatment of epilepsy” (GW Research Limited, priority 2015, dated 2021).

The subject of data set [1] is seizures. The settings on record: as described in the literature; cited from earlier work.
Data set [2] concerns seizures in adult patients with generalized epilepsy. Particulars: eight adult patients with generalized epilepsy; cited from earlier work.
In data set [3] the test system is seizures in mice. The settings on record: after pro-convulsant drugs or an electric current; cited from earlier work.
Data set [4] has as its system seizures in institutionalized adult patients. Particulars: 200 mg/day of pure CBD; twelve institutionalized adult patients; open label; cited from earlier work.
The test system of data set [5] is seizures in adult patients. The settings on record: 200 mg/day of pure CBD; four adult patients; cited from earlier work.
The subject of data set [6] is seizures in patients with Tuberous Sclerosis Complex (TSC). Nature of the data set: Expanded access compassionate use program: CBD added to baseline AED in children and young adults with treatment-resistant Tuberous Sclerosis Complex, seizure diaries. In kind it is in vivo, human. The procedure:
The terms “50% responder” and “50% reduction in seizure” are both terms used in clinical studies. In the present application the terms define the percentage of subjects that experienced a greater than or equal to 50% reduction in the total number of seizures during treatment with CBD in comparison to the number experienced during the baseline period before the CBD was administered.
These subjects were tested with a highly purified extract of cannabidiol (CBD) obtained from a cannabis plant. The participants in the study were part of an expanded access compassionate use program for CBD.
All of these patients diagnosed with TSC presented with one or more types of seizure including tonic, tonic-clonic, atonic, absence, focal seizures with impairment and focal seizures which evolve to secondary generalised seizures.
All patients entered a baseline period of 4 weeks when parents/caregivers kept prospective seizure diaries, noting all countable seizure types.
The patients then received a highly purified CBD extract (greater than 98% CBD w/w) in sesame oil, of known and constant composition, at a dose of 5 mg/kg/day in addition to their baseline anti-epileptic drug (AED) regimen.
Laboratory testing for hematologic, liver, kidney function, and concomitant AED levels was performed at baseline, and after CBD therapy.
All patients were taking at least two concomitant anti-epileptic drugs. These included clobazam; diazepam; lacosamide; lamotrigine; levetiracetam; lorazepam; nordiazepam; n-desmethylclobazam; phenytoin; valproic acid; zonisamide. The average number of concomitant antiepileptic drugs being taken was 2.7. The majority took either clobazam and/or valproic acid.
There were 12 children and young adult patients who received at least 3 months of treatment all of whom suffered from treatment-resistant epilepsy with a diagnosis of Tuberous Sclerosis Complex (TSC).

Data set [7] can be described thus: Solubility of the drug substance in water. In kind it is physicochemical. The source says: The drug substance, CBD is insoluble in water. Sesame oil was selected as an excipient to solubilize the drug substance.
For data set [8], the system named is seizures in a child with Lennox-Gastaut syndrome. The settings on record: CBD in an oily solution; cited from earlier work.
Setting [9] is: share of patients, n = 2, after 12 weeks of treatment.
The mark [10] stands for this setting: share of patients, n = 3, after 12 weeks of treatment.
Setting [11] is: share of patients, n = 5, after 12 weeks of treatment.
Setting [12] is: share of patients, n = 10, after 12 weeks of treatment.
The mark [13] stands for this setting: share of patients, n = 14, after 12 weeks of treatment.

Values joined by “and” are separate entries in the source; they are usually repeats but may differ in a detail not shown here. Equal entries are not always repeated. “Also recorded” adds a separate entry of the source.

With `CCCCCc1cc(O)c2c(c1)OC(C)(C)[C@@H]1CCC(C)=C[C@@H]21` [THC, tetrahydrocannabinol], the effect on seizures result in data set [1] is “pro-convulsant”.

As to `C=C(C)[C@@H]1CCC(C)=C[C@H]1c1c(O)cc(CCCCC)cc1O` [CBD, cannabidiol], the “patients with a marked reduction of seizures” value in data set [2] is listed as 4. For the same compound, the prevention of seizures entry in data set [3] was “able to prevent seizures”. Moreover, the controlling seizures result in data set [4] was “ineffective”. For the same compound, the “patients who became seizure free” value in data set [5] is listed as “two of the four”. In addition, the “patients with at least a fifty percent reduction in the total number of seizures” value in data set [6] (TSC patients resistant to existing AED) is on record as “half of the patients”. Moreover, the “patients treated in whom total seizure frequency was reduced” value in data set [6] (TSC patients, 12 treated) was “over 80%”. In data set [6] (TSC patients, result in words), the “effect on incidence of generalised seizure types tonic, atonic, tonic-clonic and absence seizures” value is “dramatically reduce; also recorded: virtually eliminate”; the “effect on the number of focal seizures with impairment” value is given as “markedly reduced”. Further, in data set [6] (after 3 months of therapy, 12 patients), the “TSC patients with a decrease in total seizure frequency” value is given as “ten out of 12”. The “>50% reduction in seizures (total number of seizures)” value in data set [6] (individual TSC subjects 1-12, after 12 weeks treatment) was “Yes (6×) and No (6×)”. In data set [6] (individual TSC subjects 1-12, after 12 weeks treatment, CBD 5 up to 25 mg/kg/day added to AED), the “Change in baseline (%) for total number of seizures” value was −93.7% and −15.0% and −71.0% and −33.5% and −80.2% and 0.4% and −100.0% and −9.8% and −74.4% and 108.0% and −39.2% and −63.2%. Further, the “TSC patients with a greater than 50% reduction in total seizures” value in data set [6] (over the 12 weeks of treatment, 12 patients) is listed as “six of the 12”. The “effect on the number of seizures” value in data set [6] (patients that do not respond well to existing AED, result in words) was “significantly reduces”. In data set [6] (setting [9]), the “<50% reduction in seizures, absence seizures” value is 0%; the “<50% reduction in seizures, focal seizures evolving to secondary generalisation” value is reported as 50%; the “<50% reduction in seizures, tonic-clonic seizures” value was 0%; the “>50% reduction in seizures, absence seizures” value came out at 100%. Further, in data set [6] (setting [9]), the “>50% reduction in seizures, focal seizures evolving to secondary generalisation” value is on record as 50% and the “>50% reduction in seizures, tonic-clonic seizures” value was determined as 100%. Also, in data set [6] (setting [10]), the “<50% reduction in seizures, atonic seizures” value is given as 0% and the “>50% reduction in seizures, atonic seizures” value amounted to 100%. In addition, in data set [6] (setting [11]), the “<50% reduction in seizures, tonic seizures” value turned out to be 25% and the “>50% reduction in seizures, tonic seizures” value came out at 75%. For the same compound, in data set [6] (setting [12]), the “<50% reduction in seizures, focal seizures with impairment” value is reported as 45% and the “>50% reduction in seizures, focal seizures with impairment” value was determined as 55%. In addition, in data set [6] (setting [13]), the “<50% reduction in seizures, total focal seizures” value was determined as 55% and the “>50% reduction in seizures, total focal seizures” value stood at 45%. Moreover, the “average reduction in the total number of seizures in the responders” value in data set [6] (the patients with at least 50% reduction, 12 weeks of treatment) is 80.4% and 80%. The solubility in water entry in data set [7] is “insoluble”. Further, the seizure frequency entry in data set [8] is on record as “improvement”.
